In patent US20250122182A1 (Isosterix, Inc., priority 2023, published 2025):

Molecular target: Recombinant KAT6A/MOZ (488-778) protein (Homo sapiens (Human), UniProt Q92794)
Assay: KAT6A AlphaLISA Inhibition Screening Assay
Assay type: biochemical
Conditions: for inhibition at 1 µM: read-out: Average Kat6A % inhibition @ 1 μM; for inhibition at 1 µM / Average Kat6A % inhibition @ 1 μM: 1 μM test compound; for inhibition at 10 µM: read-out: Average Kat6A % inhibition @ 10 μM; for inhibition at 10 µM / Average Kat6A % inhibition @ 10 μM: 10 μM test compound
Procedure: The Kat6a inhibitory activity of test compounds was determined using an Alpha Screen-based detection method. The assay reactions were conducted in a volume of 10 μL in Alpha Plate, White 384 well plate (cat #6008280, Perkin Elmer). The enzymatic reactions were performed in assay buffer pH 8.0 (50 mM Tris-HCl, 0.1 mM EDTA, 0.01% Tween-20, 1 mM Dithiothreitol, 0.1% BSA (fatty acid free) and 330 nM TSA (Trichostatin A)). 10 μL reaction volume consisting of 25 nM of Recombinant KAT6A/MOZ (488-778) protein (Active motif, Catalog #81223), 400 nM Acetyl coenzyme A (Catalog #A2056, Sigma), 200 nM of Histone H3 peptide [(amino acids 1-21), biotin-labeled (BPS Biosciences, Catalog #52011)]. Test compounds were screened at different doses starting with 10 μM, 3 fold dilution and 10 point Dose response curve. Enzyme and compounds solution were pre-incubated in assay plate for 60 or 10 min at room temperature then substrate and Acetyl coenzyme A solution were added to the plate. After addition, the plate was sealed with adhesive seals and incubated for 120 minutes at room temperature.
After 120 minutes of incubation, […] of AlphaLISA anti-acetyl-Lysine acceptor beads (Perkin Elmer, Catalog #AL143C) were added to the plate and it was incubated for 60 minutes at room temperature. Then […] of Alpha Streptavidin donor beads (Perkin Elmer, Catalog #6760002S) were added to the plate which was further incubated for 60 minutes at room temperature. After incubation, the alpha signal was recorded by using Perkin Elmer Envision multi-mode reader. Percent inhibition of enzyme activity by test compounds were determined relative to vehicle control.

Sequence of Recombinant KAT6A/MOZ (488-778) protein (Q92794 488-778): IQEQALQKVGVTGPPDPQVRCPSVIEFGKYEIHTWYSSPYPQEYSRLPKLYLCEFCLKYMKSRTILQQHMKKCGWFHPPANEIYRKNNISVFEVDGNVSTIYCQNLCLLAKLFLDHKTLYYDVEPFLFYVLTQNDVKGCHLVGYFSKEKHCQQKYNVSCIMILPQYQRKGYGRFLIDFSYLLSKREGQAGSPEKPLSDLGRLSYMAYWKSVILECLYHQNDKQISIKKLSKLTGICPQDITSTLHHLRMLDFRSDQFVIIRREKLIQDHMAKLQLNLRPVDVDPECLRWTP

Compound	inhibition at 1 µM	inhibition at 10 µM	Average Kat6A % inhibition @ 1 μM	Average Kat6A % inhibition @ 10 μM
C=C(F)C(=O)Nc1ccc(Oc2cc(OC)c3c(NS(=O)(=O)c4cc5c(cc4OC)CCC5)noc3c2)nc1 [Syn. Ex. 144, 2-fluoro-N-(6-((4-methoxy-3-((6-methoxy-2,3-dihydro-1H-indene)-5-sulfonamido)benzo[d]isoxazol-6-yl)oxy)pyridin-3-yl)acrylamide]			101%	99%
C=C(F)C(=O)NCc1cnn(Cc2cc(OC)c3c(NS(=O)(=O)c4cc(C(C)C)ccc4OC)noc3c2)c1 [Syn. Ex. 59, 2-fluoro-N-((1-((3-((5-isopropyl-2-methoxyphenyl)sulfonamido)-4-methoxybenzo[d]isoxazol-6-yl)methyl)-1H-pyrazol-4-yl)methyl)acrylamide]	100%	100%		
C=C(F)C(=O)NCc1cnn(Cc2cc(OC)c3c(NS(=O)(=O)c4ccccc4OCc4ccccc4)noc3c2)c1 [Syn. Ex. 36, N-((1-((3-((2-(benzyloxy)phenyl)sulfonamido)-4-methoxybenzo[d]isoxazol-6-yl)methyl)-1H-pyrazol-4-yl)methyl)-2-fluoroacrylamide]	93%	97%		
CCc1ccc(OC)c(S(=O)(=O)Nc2noc3cc(Oc4nc(CNC(=O)OC)cs4)cc(OC)c23)c1 [Syn. Ex. 104, methyl ((2-((3-((5-ethyl-2-methoxyphenyl)sulfonamido)-4-methoxybenzo[d]isoxazol-6-yl)oxy)thiazol-4-yl)methyl)carbamate]	25%	92%		
CC#CC(=O)N1Cc2cn(Cc3cc(OC)c4c(NS(=O)(=O)c5cc(CC)ccc5OC)noc4c3)nc2C1 [Syn. Ex. 12, N-(6-((5-(but-2-ynoyl)-5,6-dihydropyrrolo[3,4-c]pyrazol-2(4H)-yl)methyl)-4-methoxybenzo[d]isoxazol-3-yl)-5-ethyl-2-methoxybenzenesulfonamide]	38%	97%		
COc1cc2c(NS(=O)(=O)c3cc(C)ccc3OC)noc2cc1Cn1cc(CN)cn1 [Syn. Ex. 150, N-(6-((4-(aminomethyl)-1H-pyrazol-1-yl)methyl)-5-methoxybenzo[d]isoxazol-3-yl)-2-methoxy-5-methylbenzenesulfonamide]	101%	103%		
COc1cc2c(cc1S(=O)(=O)Nc1noc3cc(Cn4cc(CNS(C)(=O)=O)cn4)cc(OC)c13)CCC2 [Syn. Ex. 24, 6-methoxy-N-(4-methoxy-6-((4-(methylsulfonamidomethyl)-1H-pyrazol-1-yl)methyl)benzo[d]isoxazol-3-yl)-2,3-dihydro-1H-indene-5-sulfonamide]	99%	100%		
C=C(F)C(=O)NCc1csc(Oc2cc(OC)c3c(NS(=O)(=O)c4cc(CC)ccc4OC)noc3c2)n1 [Syn. Ex. 105, N-((2-((3-((5-ethyl-2-methoxyphenyl)sulfonamido)-4-methoxybenzo[d]isoxazol-6-yl)oxy)thiazol-4-yl)methyl)-2-fluoroacrylamide]	68%	99%		
COc1ccc(S(=O)(=O)Nc2noc3cc(Cn4cc(CNS(C)(=O)=O)cn4)cc(OC)c23)c(OC)c1 [Syn. Ex. 10, 2,4-dimethoxy-N-(4-methoxy-6-((4-(methylsulfonamidomethyl)-1H-pyrazol-1-yl)methyl)benzo[d]isoxazol-3-yl)benzenesulfonamide]	100%	100%		
C=C(F)C(=O)NCc1cnn(Cc2cc(OC)c3c(NS(=O)(=O)c4cc5c(cc4OC)CCC5)noc3c2)c1 [Syn. Ex. 30, 2-fluoro-N-((1-((4-methoxy-3-((6-methoxy-2,3-dihydro-1H-indene)-5-sulfonamido)benzo[d]isoxazol-6-yl)methyl)-1H-pyrazol-4-yl)methyl)acrylamide]			100%	100%
CCc1ccc(OCc2ccc(F)cc2)c(S(=O)(=O)Nc2noc3cc(Cn4cc(CNC(=O)OC)cn4)cc(OC)c23)c1 [Syn. Ex. 122, methyl ((1-((3-((5-ethyl-2-((4-fluorobenzyl)oxy)phenyl)sulfonamido)-4-methoxybenzo[d]isoxazol-6-yl)methyl)-1H-pyrazol-4-yl)methyl)carbamate]	100%	100%		
C=C(F)C(=O)N(C)Cc1cnn(Cc2cc(OC)c3c(NS(=O)(=O)c4cc(CC)ccc4OC)noc3c2)c1 [Syn. Ex. 39, N-((1-((3-((5-ethyl-2-methoxyphenyl)sulfonamido)-4-methoxybenzo[d]isoxazol-6-yl)methyl)-1H-pyrazol-4-yl)methyl)-2-fluoro-N-methylacrylamide]	92%	100%		

Continued, in another order:

inhibition at 1 µM	inhibition at 10 µM	Compound	Average Kat6A % inhibition @ 1 μM	Average Kat6A % inhibition @ 10 μM
100%	100%	C=C(Cl)C(=O)NCc1cnn(Cc2cc(OC)c3c(NS(=O)(=O)c4cc(CC)ccc4OC)noc3c2)c1 [Syn. Ex. 35, 2-chloro-N-((1-((3-((5-ethyl-2-methoxyphenyl)sulfonamido)-4-methoxybenzo[d]isoxazol-6-yl)methyl)-1H-pyrazol-4-yl)methyl)acrylamide]		
100%	100%	C=C(F)C(=O)NCc1cnn(Cc2cc(OC)c3c(NS(=O)(=O)c4cc(C)ccc4OC)noc3c2)c1 [Syn. Ex. 89, 2-fluoro-N-((1-((4-methoxy-3-((2-methoxy-5-methylphenyl)sulfonamido)benzo[d]isoxazol-6-yl)methyl)-1H-pyrazol-4-yl)methyl)acrylamide]		
96%	99%	C#CC(=O)NCc1cnn(Cc2cc(OC)c3c(NS(=O)(=O)c4cc(CC)ccc4OCC#N)noc3c2)c1 [Syn. Ex. 69, N-((1-((3-((2-(cyanomethoxy)-5-ethylphenyl)sulfonamido)-4-methoxybenzo[d]isoxazol-6-yl)methyl)-1H-pyrazol-4-yl)methyl)propiolamide]		
100%	100%	C=C(F)C(=O)NCc1cnn(Cc2cc(OC)c3c(NS(=O)(=O)c4cc(CC)ccc4OCCN4CCOC4=O)noc3c2)c1 [Syn. Ex. 78, N-((1-((3-((5-ethyl-2-(2-(2-oxooxazolidin-3-yl)ethoxy)phenyl)sulfonamido)-4-methoxybenzo[d]isoxazol-6-yl)methyl)-1H-pyrazol-4-yl)methyl)-2-fluoroacrylamide]		
99%	100%	CCc1ccc(OC)c(S(=O)(=O)Nc2noc3cc(Cn4cc(CNC(C)=O)cn4)cc(OC)c23)c1 [Syn. Ex. 8, N-((1-((3-((5-ethyl-2-methoxyphenyl)sulfonamido)-4-methoxybenzo[d]isoxazol-6-yl)methyl)-1H-pyrazol-4-yl)methyl) acetamide]		
93%	100%	C=CC(=O)NCc1cnn(Cc2cc(OC)c3c(NS(=O)(=O)c4cc(CC)ccc4OC)noc3c2)c1 [Syn. Ex. 42, N-((1-((3-((5-ethyl-2-methoxyphenyl)sulfonamido)-4-methoxybenzo[d]isoxazol-6-yl)methyl)-1H-pyrazol-4-yl)methyl) acrylamide]		
100%	100%	C=C(F)C(=O)NCc1cnn(Cc2cc3onc(NS(=O)(=O)c4cc(CC)ccc4OC)c3c3c2CCCO3)c1 [Syn. Ex. 96, N-((1-((9-((5-ethyl-2-methoxyphenyl)sulfonamido)-3,4-dihydro-2H-chromeno[8,7-d]isoxazol-5-yl)methyl)-1H-pyrazol-4-yl)methyl)-2-fluoroacrylamide]		
